# Data from ChEMBL document CHEMBL1201862, “PubChem BioAssay data set” (2004).
# Calls of active or inactive are those of the source.
# Key:
# [1] = cytotoxicity in MITF-independent A375 cells – cell-based, CellTiter-Glo luminescence, dry powder, set 4, counter-screen for MITF inhibitor project, dose response (AID 624364); assay type: functional; conditions: A-375;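 also: A375 melanoma cells are MITF independent so this is a counter screen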
# [2] = viability loss in MITF-independent A375 cells – cell-based, CellTiter-Glo luminescence, dry powder, set 2, counter-screen for MITF inhibitor project, dose response (AID 624489); assay type: functional; conditions: A-375;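 also: actives are compounds lowering A375 viability meaning general cytotoxicity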
# [3] = potency of ADAM10 substrate cleavage blockers – biochemical, QFRET, dose response (AID 743254);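 also: ADAM10 enzyme with the DM2 quenched FRET peptide as substrate; EDANS fluorescence gain as the protease cuts the substrate; inhibitor potency against ADAM10 proteolytic activity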
# [4] = molecular target: Disintegrin and metalloproteinase domain-containing protein 17 (Homo sapiens, UniProt P78536); experiment: inhibition of ADAM17 substrate cleavage – biochemical, quenched FRET substrate, counter-screen for ADAM10 exosite inhibitor project, dose response (AID 743253)
# NS3 = NS3 (Hepatitis C virus, UniProt A3EZJ3); experiment: PubChem AID 2173; set-up: species or system Hepacivirus hominis
# Albumin = Albumin (Bos taurus, UniProt P02769); experiment: Counterscreen for inhibitors of T-cell receptor (TCR)-CD3 interaction: Fluorescence-based biochemical high throughput dose response assay to identify inhibitors of T-cell receptor (TCR)-CD3 interaction using a TAMRA-labeled BSA probe.; assay type: functional
# [5] = molecular target: Induced myeloid leukemia cell differentiation protein Mcl-1 (Homo sapiens, UniProt Q07820); assay type: functional
# [6] = MITF: Counter assay: A375 proliferation Measured in Cell-Based System Using Plate Reader - 2084-03_Inhibitor_Dose_DryPowder_Activity_Set8.; assay type: functional; conditions: A-375
# [7] = inhibitors of TRPM1-promoter reporter in SK-MEL-5 – cell-based, luciferase, dry powder, set 8, MITF inhibitor project, dose response (AID 624430); assay type: functional
# [8] = MITF Orthogonal Assay: SK-MEL-5 CTG Assay Measured in Cell-Based System Using Plate Reader - 2084-02_Inhibitor_Dose_DryPowder_Activity_Set7.; assay type: functional
# Paired box protein Pax-8 = Paired box protein Pax-8 (Homo sapiens, UniProt Q06710); experiment: PAX8 transcriptional activity inhibition in RMG-I – RMG-I cells, luciferase, cherry-pick, dose response (AID 687027); assay type: functional, cell-based;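 also: luciferase reporter driven by Pax8 target thyroperoxidase promoter measured by SteadyGlo luminescence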
# [9] = OVCAR8 cell viability loss – plate reader, dry powder samples, PAX8 project, dose response (AID 743197); assay type: functional, cell-based; conditions: OVCAR-8
# [10] = IGROV1 cell killing – plate reader, dry powder samples, PAX8 inhibitor project, dose response (AID 743043); assay type: functional, cell-based; conditions: IGROV-1
# [11] = OVCAR-3 cell viability loss – plate reader, dry powder samples, PAX8 inhibitor project, dose response (AID 743044); assay type: functional, cell-based
# [12] = T. cruzi growth inhibition in host cells, dose response, cell-based, plate reader, dry powder, set 2 (AID 652275); assay type: functional
# [13] = reduction of Shn3 3'UTR-driven luciferase in osteoblasts – cell-based, Clone20 osteoblasts, firefly luciferase, cherry-picked, dose response (AID 624132); assay type: functional;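 also: firefly luciferase luminescence from reporter carrying the Shn3 3'UTR in osteoblasts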
# [14] = loss of viability in HepG2 cells – cell-based, CellTiter-Glo, cherry-picked, cytotoxicity control for Shn3 inhibitor project, dose response (AID 624134); assay type: functional
# HEK293 = experiment: EBV LMP1 TES2 canonical NF-kB signalling blockers – cell-based, HEK293, luciferase, cherry-pick, dose response (AID 588343); assay type: functional; conditions: Homo sapiens
# [15] = general mammalian cell viability loss – inhibitor set, cherry-pick, set 2, cytotoxicity control for miR-122 modulator project, dose response (AID 720697); assay type: functional, cell-based
# [16] = reduced cellular PGC1a acetyl-lysine signal – cell-based, cherry-picked samples, dose response (AID 720514); assay type: functional;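 also: potency may reflect raised or lowered acetylation signal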
# [17] = non-specific 3'UTR reporter inhibition in Clone20-Shn3RL – cell-based, Renilla luciferase, cherry-picked, counter-screen for Shn3 inhibitor project, dose response (AID 624133); assay type: functional
# [18] = activation of miR-122 Renilla sensor silencing – cell-based, Huh7 psiCHECK-miR122, Renilla luciferase, cherry-picked, dose response (AID 651956); assay type: functional;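 also: huh7 hepatoma cells stably carrying a psiCHECK-2 miR-122 sensor plasmid; renilla luciferase signal reporting endogenous miR-122 activity after 48 h compound exposure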
# [19] = general mammalian cell viability loss – activator set, cherry-pick, cytotoxicity control for miR-122 modulator project, dose response (AID 720690); assay type: functional, cell-based;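 also: HEK293T human cells scored for general mammalian cytotoxicity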
# [20] = Dd2 parasite growth inhibition in erythrocytes – SYBR Green, dry powder samples, set 9, dose response (AID 1159568); assay type: functional, cell-based
# [21] = IC50 of insulin release inhibition, rat insulinoma INS-1E line, 5 mM glucose, cell-based (AID 1117331); assay type: functional
# fMet-Leu-Phe receptor = fMet-Leu-Phe receptor (Homo sapiens, UniProt P21462); experiment: formyl peptide receptor binders – dose response (AID 519); assay type: functional
# cells [22] = assay type: functional, cell-based
# [23] = molecular target: T1, Nuclear receptor subfamily 0 group B member 1 (Homo sapiens, UniProt P51843); assay type: functional, cell-based;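 also: HEK293T cells transfected with SF-1 and DAX-1 plus StAR promoter luciferase reporter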
# T1 sequence (P51843 whole entry): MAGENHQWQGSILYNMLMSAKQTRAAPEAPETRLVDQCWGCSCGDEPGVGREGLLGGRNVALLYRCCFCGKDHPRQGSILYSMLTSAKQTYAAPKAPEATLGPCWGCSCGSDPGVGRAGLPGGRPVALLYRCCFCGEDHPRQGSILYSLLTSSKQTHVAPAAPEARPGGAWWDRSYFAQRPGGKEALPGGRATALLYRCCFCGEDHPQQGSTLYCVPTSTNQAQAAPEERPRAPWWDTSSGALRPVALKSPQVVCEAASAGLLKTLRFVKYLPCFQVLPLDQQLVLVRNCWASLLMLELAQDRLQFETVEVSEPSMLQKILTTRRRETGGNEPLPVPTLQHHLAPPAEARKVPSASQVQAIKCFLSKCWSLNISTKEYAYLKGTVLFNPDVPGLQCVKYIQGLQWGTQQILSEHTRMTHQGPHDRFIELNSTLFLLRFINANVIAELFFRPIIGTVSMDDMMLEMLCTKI
# [24] = molecular target: T2, Trace amine-associated receptor 1 (Homo sapiens, UniProt Q96RJ0); experiment: Fluorescence-based cell-based high throughput dose response assay to identify agonists of the human trace amine associated receptor 1 (TAAR1).; assay type: functional
# T2 sequence (Q96RJ0 whole entry): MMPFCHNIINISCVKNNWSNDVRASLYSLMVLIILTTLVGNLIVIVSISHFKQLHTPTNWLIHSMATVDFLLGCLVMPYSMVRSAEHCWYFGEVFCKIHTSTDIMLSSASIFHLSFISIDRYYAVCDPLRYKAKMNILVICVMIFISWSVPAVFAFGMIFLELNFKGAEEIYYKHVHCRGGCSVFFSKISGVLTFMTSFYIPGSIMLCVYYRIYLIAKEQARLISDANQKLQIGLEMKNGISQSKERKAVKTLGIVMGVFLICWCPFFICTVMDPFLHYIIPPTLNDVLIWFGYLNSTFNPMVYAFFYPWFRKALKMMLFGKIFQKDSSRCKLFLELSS
# [25] = molecular target: T2, Trace amine-associated receptor 1; experiment: Counterscreen for agonists of the human trace amine associated receptor 1 (hTAAR1): Fluorescence-based cell-based high throughput dose response assay to identify hTAAR1 agonist that also desensitize TAAR1 receptor response.; assay type: functional
# cells [26] = assay type: functional, cell-based; remark: listed apart in the source
# cells [27] = assay type: functional, cell-based; remark: listed apart in the source
# [28] = molecular target: T3, Corticotropin-releasing factor receptor 2/Corticotropin-releasing factor-binding protein (Homo sapiens, UniProt P24387+Q13324); experiment: Dose Response confirmation of uHTS hits for small molecule antagonists of the CRF-binding protein and CRF-R2 receptor complex.; assay type: functional; conditions: read-out: IC50_Mean
# T3 sequence (Q13324 whole entry): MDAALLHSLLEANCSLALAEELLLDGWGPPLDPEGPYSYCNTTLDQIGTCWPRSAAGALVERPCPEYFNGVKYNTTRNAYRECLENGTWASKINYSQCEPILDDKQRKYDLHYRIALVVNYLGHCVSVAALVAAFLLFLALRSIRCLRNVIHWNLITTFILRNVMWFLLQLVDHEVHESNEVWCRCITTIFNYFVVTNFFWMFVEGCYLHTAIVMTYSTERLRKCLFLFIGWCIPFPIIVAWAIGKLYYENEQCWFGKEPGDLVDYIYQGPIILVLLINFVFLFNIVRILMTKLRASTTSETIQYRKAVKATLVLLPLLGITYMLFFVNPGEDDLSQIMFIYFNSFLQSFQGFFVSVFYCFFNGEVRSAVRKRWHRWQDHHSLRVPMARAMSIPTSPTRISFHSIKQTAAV
# T3 sequence (P24387 whole entry): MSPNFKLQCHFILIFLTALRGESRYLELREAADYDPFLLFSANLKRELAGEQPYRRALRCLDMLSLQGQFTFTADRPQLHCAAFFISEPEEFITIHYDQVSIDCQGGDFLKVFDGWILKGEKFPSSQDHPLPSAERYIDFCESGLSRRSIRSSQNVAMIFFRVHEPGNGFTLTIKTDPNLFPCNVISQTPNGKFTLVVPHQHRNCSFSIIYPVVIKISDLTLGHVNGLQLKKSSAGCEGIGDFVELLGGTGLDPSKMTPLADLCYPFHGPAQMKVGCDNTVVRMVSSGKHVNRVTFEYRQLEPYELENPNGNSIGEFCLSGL
# [29] = molecular target: T3, Corticotropin-releasing factor receptor 2/Corticotropin-releasing factor-binding protein; experiment: activators of CRF receptor 2 with binding protein – uHTS hits, confirmation (AID 602473); assay type: functional; conditions: read-out: EC50_Mean
# Chain of Disintegrin and metalloproteinase domain-containing protein 17 (P78536 whole entry, the tested form may be a part): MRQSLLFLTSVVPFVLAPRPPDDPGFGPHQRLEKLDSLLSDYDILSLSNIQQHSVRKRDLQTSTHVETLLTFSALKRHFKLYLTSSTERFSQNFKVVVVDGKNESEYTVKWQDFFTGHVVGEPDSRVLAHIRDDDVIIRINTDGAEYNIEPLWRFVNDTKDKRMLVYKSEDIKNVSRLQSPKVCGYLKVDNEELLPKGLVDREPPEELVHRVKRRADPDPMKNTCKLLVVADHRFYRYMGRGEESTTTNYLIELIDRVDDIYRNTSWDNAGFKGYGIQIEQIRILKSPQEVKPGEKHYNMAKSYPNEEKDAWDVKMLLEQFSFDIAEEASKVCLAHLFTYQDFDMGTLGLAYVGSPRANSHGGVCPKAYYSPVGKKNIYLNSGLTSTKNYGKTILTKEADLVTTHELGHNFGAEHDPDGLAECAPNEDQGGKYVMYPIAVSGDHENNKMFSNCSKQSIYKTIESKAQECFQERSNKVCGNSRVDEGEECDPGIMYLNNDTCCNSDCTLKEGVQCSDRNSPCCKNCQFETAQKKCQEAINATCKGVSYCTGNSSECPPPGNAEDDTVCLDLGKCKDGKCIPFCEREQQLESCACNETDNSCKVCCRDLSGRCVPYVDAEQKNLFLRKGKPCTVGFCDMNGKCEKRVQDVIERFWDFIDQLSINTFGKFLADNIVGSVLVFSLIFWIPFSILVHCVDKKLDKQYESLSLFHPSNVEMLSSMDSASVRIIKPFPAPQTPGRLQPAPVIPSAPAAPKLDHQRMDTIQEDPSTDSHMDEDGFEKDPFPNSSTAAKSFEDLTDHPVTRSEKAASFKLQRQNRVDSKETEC
# Chain of Albumin (P02769 whole entry): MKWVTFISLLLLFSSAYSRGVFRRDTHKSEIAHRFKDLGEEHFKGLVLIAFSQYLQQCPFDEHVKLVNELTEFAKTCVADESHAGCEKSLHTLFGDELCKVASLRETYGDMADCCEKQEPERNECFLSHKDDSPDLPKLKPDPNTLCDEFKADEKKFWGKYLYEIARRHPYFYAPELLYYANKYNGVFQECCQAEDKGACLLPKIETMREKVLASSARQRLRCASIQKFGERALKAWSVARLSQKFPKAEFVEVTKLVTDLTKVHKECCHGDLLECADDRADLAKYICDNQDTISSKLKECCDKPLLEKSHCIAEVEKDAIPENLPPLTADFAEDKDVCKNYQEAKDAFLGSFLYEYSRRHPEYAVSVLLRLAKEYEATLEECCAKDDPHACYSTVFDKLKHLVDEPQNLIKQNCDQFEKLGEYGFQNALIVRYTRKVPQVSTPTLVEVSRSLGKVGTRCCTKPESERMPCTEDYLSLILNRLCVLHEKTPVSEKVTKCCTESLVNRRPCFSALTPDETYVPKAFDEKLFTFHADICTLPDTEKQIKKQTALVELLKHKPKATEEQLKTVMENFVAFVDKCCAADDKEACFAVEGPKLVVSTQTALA
# Chain of Paired box protein Pax-8 (Q06710 whole entry): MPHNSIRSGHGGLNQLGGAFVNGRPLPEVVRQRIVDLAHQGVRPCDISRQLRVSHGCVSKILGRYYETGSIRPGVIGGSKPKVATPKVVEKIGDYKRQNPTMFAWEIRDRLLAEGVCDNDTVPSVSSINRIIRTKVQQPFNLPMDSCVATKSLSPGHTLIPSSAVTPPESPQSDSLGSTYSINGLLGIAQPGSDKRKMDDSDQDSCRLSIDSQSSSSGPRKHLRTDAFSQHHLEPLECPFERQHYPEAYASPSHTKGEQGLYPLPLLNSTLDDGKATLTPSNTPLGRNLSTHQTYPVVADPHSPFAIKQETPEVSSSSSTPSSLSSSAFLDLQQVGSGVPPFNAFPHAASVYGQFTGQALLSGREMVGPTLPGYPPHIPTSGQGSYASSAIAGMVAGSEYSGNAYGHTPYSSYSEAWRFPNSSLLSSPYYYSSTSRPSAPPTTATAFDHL
# Chain of NS3 (A3EZJ3 whole entry): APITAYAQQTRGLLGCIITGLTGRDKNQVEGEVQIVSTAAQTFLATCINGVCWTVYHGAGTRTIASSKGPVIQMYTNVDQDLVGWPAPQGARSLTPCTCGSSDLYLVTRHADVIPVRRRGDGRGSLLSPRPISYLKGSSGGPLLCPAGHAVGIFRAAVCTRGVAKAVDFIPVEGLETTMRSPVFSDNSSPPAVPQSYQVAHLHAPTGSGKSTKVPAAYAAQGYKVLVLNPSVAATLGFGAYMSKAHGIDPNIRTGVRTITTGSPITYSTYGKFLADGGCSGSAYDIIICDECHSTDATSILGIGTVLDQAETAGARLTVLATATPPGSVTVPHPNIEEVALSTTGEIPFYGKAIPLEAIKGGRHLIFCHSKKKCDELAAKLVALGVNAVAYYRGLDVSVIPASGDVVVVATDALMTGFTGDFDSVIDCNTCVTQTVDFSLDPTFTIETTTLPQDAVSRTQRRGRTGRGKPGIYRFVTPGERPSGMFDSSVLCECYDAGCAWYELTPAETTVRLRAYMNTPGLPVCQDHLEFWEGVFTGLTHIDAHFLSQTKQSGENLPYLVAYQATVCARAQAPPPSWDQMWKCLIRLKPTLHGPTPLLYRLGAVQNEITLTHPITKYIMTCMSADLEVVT
# Chain of fMet-Leu-Phe receptor (P21462 whole entry): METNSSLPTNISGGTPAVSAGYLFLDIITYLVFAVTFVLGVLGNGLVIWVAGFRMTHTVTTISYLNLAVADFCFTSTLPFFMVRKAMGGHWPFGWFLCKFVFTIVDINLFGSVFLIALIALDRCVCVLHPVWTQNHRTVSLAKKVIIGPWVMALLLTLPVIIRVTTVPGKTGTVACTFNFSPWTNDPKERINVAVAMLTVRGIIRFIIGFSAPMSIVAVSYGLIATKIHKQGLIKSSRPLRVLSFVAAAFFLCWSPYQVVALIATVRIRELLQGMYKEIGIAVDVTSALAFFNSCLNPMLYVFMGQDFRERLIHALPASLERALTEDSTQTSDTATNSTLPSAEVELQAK
# Chain of Induced myeloid leukemia cell differentiation protein Mcl-1 (Q07820 whole entry): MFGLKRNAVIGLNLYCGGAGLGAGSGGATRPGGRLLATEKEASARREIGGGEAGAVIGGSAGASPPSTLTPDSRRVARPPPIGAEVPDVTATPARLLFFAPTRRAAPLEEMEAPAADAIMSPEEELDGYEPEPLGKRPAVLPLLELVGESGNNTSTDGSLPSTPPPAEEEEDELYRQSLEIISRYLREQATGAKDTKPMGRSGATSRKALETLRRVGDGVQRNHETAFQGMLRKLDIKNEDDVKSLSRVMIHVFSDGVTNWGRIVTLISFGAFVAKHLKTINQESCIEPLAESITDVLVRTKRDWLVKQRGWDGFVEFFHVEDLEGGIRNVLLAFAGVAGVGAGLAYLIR
smiles,measurement,setting,value
O=C(NC1=C(N2CCOCC2)C(=O)c2ccccc2C1=O)c1ccccc1,AC50,[1],34.6 µM (active)
same,AC50,[2],31.9 µM (active)
CC(O)(c1cccc(F)c1)c1nc(/C=C/c2ccccc2)cs1 (stereo unspecified),IC50,[3],25 µM (inactive)
same,IC50,[4],> 69.5 µM (inactive)
Nc1c(C(=O)NCC2CCCO2)sc2nc3c(c(-c4ccco4)c12)CC/C3=C\c1ccco1 (stereo unspecified),IC50,NS3,3.91 µM (active)
same,IC50,Albumin,> 94.1 µM (inactive)
same,IC50,[5],1.22 µM (active)
O=C1C(Nc2ccc(F)cc2F)=C(N2CCCC2)C(=O)c2ccccc21,AC50,[6],8.05 µM (active)
same,AC50,[7],0.677 µM (active)
same,AC50,[8],2.35 µM (active)
COc1cc(OC)cc(C(=O)N/N=C/c2ccc(OC)c(COc3ccc4ccccc4c3)c2)c1,IC50,Albumin,> 94.1 µM (inactive)
C[C@@H]1CN([C@@H](C)CO)C(=O)c2cc(NC(=O)Nc3ccc(C(F)(F)F)cc3)ccc2O[C@@H](C)CCCCO[C@H]1CN(C)Cc1ccc2c(c1)OCO2,AC50,Paired box protein Pax-8,14.3 µM (active)
same,AC50,[9],24 µM (active)
same,AC50,[10],29 µM (active)
same,AC50,[11],9.82 µM (active)
O=C(CN1CCOCC1)N1CCCCN2[C@@H](CO)[C@H](c3ccc(-c4ccccc4F)cc3)[C@@H]2C1,AC50,[12],840 nM (active)
CCN1CCN(Cc2ccc(NC(=O)c3ccc(C)c(NC(=O)c4cnc5cc(C(F)(F)F)ccc5c4O)c3)cc2C(F)(F)F)CC1,AC50,[13],3.13 µM (active)
same,AC50,[14],5.71 µM (active)
same,AC50,HEK293,2.74 µM (active)
same,AC50,[15],4.86 µM (active)
same,AC50,[16],5.48 µM (active)
same,AC50,[17],6.23 µM (active)
same,AC50,[18],5.11 µM (active)
same,AC50,[19],4.48 µM (active)
N#C[C@@H]1[C@H](c2ccccc2C2=CCCCC2)[C@H](CO)N1S(=O)(=O)c1ccccc1,AC50,[20],13.1 µM (active)
CC(C(O)c1ccccc1)N(C)CCOC(c1ccccc1)c1ccccc1 (stereo unspecified) [DIFETEROL],IC50,[21],> 33.3 µM (inactive)
CC(C)N1C[C@H](C)[C@@H](CN(C)Cc2ccc(Oc3ccccc3)cc2)Oc2c(C(=O)Nc3ccncc3)cccc2C1=O,AC50,[12],167 nM (active)
O=C(C1=C(O)C(=O)N(CCOCCO)C1c1cccs1)c1cccs1 (stereo unspecified),Ki,fMet-Leu-Phe receptor,21.4 µM (inactive)
CC1(Cc2ccc(Cl)c(Cl)c2)C(=O)Nc2ccc(S(=O)(=O)NC3CCCCC3)cc21 (stereo unspecified),IC50,[3],8.03 µM (active)
same,IC50,[4],> 69.5 µM (inactive)
O=C1C(Nc2ccc(Cl)c(Cl)c2)=C(N2CCCC2)C(=O)c2ccccc21,AC50,[6],> 70 µM (inactive)
same,AC50,[7],8.91 µM (active)
same,AC50,[8],29.2 µM (active)
O=C(Nc1ncccc1O)c1ccc(S(=O)(=O)N2CCCCCC2)cc1,IC50,cells [22],> 67.5 µM (inactive)
same,IC50,[23],31.7 µM (inactive)
CN1C(=O)C(=CN2CCN(C(=O)c3ccco3)CC2)C(=O)N(C)C1=S,EC50,[24],4.85 µM (active)
same,IC50,[25],> 29.9 µM (inactive)
same,IC50,cells [26],> 29.9 µM (inactive)
same,EC50,cells [27],> 29.9 µM (inactive)
COc1ccccc1CC(=O)NCCc1ccccc1,EC50,[24],3.18 µM (active)
same,IC50,[25],9 µM (active)
same,IC50,cells [26],> 29.9 µM (inactive)
same,EC50,cells [27],> 29.9 µM (inactive)
O=C(NC1=C(N2CCSCC2)C(=O)c2ccccc2C1=O)c1ccccc1,AC50,[1],40.7 µM (active)
same,AC50,[2],26.9 µM (active)
Cn1ccc(C(=O)Nc2sc3c(c2C(N)=O)CCCCC3)n1,IC50,[28],> 47.1 µM (inactive)
same,IC50,cells [22],> 67.5 µM (inactive)
same,EC50,[29],> 53 µM (inactive)
same,IC50,[23],> 2.5 µM (active)
C[C@H](CO)N1C[C@H](C)[C@H](CN(C)C(=O)NC2CCCCC2)Oc2cc(C#Cc3ccc(F)cc3)ccc2S1(=O)=O,AC50,Paired box protein Pax-8,7.83 µM (active)
same,AC50,[16],12.8 µM (active)
